Laboratory results: patent US20230149355A1, “COMPOSITIONS AND METHODS FOR MODULATING TRP CHANNEL ACTIVITY” (priority 2020, published 2023)

Columns and labels:
intestinal motility = assay: Zebrafish intestinal motility (PIV-Lab velocity analysis); format: in vivo; conditions: AhR inhibitor 10 μM or folic acid 10 μM for 2 hours
Description: For EEC Trpa1 activation using the Optovin platform, zebrafish larvae were treated with 10 μM Optovin overnight. Following Optovin treatment, unanesthetized zebrafish were mounted in 1% LMA and imaged under a 780 upright Zeiss confocal microscope using 20× water objective lenses. For all the experiments, the mid-intestine region was imaged (FIG. 10D). The intestinal epithelium was selected as the region of interest (ROI) (FIG. 10A). Serial images were obtained at 1 s/frame. A 405 nm pulse of light was applied to the ROI at 1 pulse/10 s. For some experiments (FIG. 7D-F, FIG. 10B-G), the images were obtained at 10 s/frame.
The zebrafish intestinal motility is quantified through recorded image series of zebrafish intestine using the method similar as previously described (Ganz et al., 2018). Intestinal p velocity and v velocity were used to estimate intestinal motility in zebrafish as previously described using the PIV-Lab MATLAB app (Ganz et al., 2018). A positive value of the μ velocity indicates an anterograde intestinal movement and a negative value of the μ velocity indicates a retrograde intestinal movement. The time-course p velocity number is plotted as heatmaps. When calculating the mean velocity, only the mean velocity magnitude was calculated, which therefore doesn't account for the movement direction. The MTrackJ FIJI plugin was used to quantify the mean velocity magnitude (Meijering et al., 2012).

E. tarda = assay: Intestinal E. tarda mCherry accumulation in zebrafish treated with AhR inhibitors; format: in vivo; conditions: AhR inhibitor 1 μM or folic acid 10 μM, 3 dpf to 6 dpf
Description: For E. tarda colonization experiments, fertilized zebrafish eggs were collected, sorted and transferred into a cell culture flask containing 80 mL GZM at 0 dpf. At 3 dpf, dead embryos and 60 mL GZM were removed and replaced with 50 mL fresh GZM in each flask. To facilitate consistent commensal gut bacterial colonization, an additional 10 mL of filtered system water (5 μm filter, SLSV025LS, Millipore) were added to each flask. Overnight E. tarda mCherry culture was harvested, washed three times with GZM. 150 μL of GZM-washed E. tarda mCherry culture were inoculated into each flask. The E. tarda concentration is ˜10^6 CFU/ml. […] At 6 dpf, zebrafish larvae were subjected to fluorescence imaging analysis or CFU quantification. For fluorescence imaging analysis, zebrafish larvae were anesthetized with Tricaine ([…]), mounted in 3% methylcellulose and imaged with a Leica M205 FA upright fluorescence stereomicroscope equipped with a Leica DFC 365FX camera. For CFU quantification, digestive tracts were dissected and transferred into 1 mL sterile PBS which was then mechanically disassociated using a Tissue-Tearor (BioSpec Products, 985370). […] The mCherry+ colonies were quantified from each plate and E. tarda colony forming units (CFUs) per fish were calculated. […]

AhR signaling = conditions: 0.05 μM; cited from earlier work
AhR = molecular target: T1, AhR (Homo sapiens, UniProt P35869); conditions: Kim et al., 2020; cited from earlier work
T1 sequence (P35869 11-848): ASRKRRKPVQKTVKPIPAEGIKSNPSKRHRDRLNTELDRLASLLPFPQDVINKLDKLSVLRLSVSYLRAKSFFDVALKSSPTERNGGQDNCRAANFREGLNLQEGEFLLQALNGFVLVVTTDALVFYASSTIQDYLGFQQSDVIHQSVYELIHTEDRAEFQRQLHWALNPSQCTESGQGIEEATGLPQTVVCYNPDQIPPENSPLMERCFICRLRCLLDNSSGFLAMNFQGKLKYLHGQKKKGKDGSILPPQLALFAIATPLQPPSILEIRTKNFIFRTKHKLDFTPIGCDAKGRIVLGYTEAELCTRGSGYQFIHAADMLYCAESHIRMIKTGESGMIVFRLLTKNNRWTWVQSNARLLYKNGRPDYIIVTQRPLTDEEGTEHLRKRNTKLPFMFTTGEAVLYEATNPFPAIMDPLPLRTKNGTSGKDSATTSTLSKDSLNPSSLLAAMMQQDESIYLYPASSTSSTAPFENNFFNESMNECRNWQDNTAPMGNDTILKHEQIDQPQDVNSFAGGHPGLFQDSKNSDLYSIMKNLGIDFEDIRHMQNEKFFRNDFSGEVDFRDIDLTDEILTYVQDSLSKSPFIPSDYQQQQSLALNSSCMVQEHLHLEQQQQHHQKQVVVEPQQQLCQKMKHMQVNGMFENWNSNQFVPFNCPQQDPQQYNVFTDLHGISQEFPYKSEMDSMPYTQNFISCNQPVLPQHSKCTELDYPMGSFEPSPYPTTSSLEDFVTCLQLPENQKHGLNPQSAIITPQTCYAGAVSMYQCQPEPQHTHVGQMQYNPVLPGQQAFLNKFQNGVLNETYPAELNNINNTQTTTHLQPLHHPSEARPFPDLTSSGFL

Nc1nc2ncc(CNc3ccc(C(=O)N[C@@H](CCC(=O)O)C(=O)O)cc3)nc2c(=O)[nH]1 [Folic acid]
Effect on Optovin-UV induced intestinal motility change (intestinal motility): insufficient to block
Effect on E. tarda intestinal accumulation (E. tarda): insufficient to block
Inhibition of AhR signaling in early zebrafish embryos (AhR signaling): inhibits
Concentration at which it acts as a competitive AhR antagonist (as low as) (AhR): 10 ng/mL
